The text below walks through data of article PMC9668914, “Understanding VPAC receptor family peptide binding and selectivity” (Nature Communications, 2022).

The target in this assay is T1, Nluc-PAC1R (Homo sapiens, UniProt P41586).
T1 construct: A construct containing N-terminal NLuc immediately after the native signal peptide of PAC1R was also generated in pcDNA3.1; expressed in transfected cells; host or cells: COS-7 (transient, PEI; whole cells at 4 °C)
T1 sequence (P41586 21-468): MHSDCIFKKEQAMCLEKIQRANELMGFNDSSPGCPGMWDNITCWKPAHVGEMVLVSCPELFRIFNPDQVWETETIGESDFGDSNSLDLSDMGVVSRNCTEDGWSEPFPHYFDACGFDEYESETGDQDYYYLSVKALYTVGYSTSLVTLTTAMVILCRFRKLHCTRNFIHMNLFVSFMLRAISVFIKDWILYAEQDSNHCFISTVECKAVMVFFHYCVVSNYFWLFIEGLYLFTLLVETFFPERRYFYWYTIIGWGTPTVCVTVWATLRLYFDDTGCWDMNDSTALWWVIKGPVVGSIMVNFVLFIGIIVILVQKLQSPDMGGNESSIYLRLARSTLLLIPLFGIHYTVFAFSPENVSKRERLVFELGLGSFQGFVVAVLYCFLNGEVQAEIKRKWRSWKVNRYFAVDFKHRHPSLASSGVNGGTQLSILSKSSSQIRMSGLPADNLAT
In words: NanoBRET competition binding, AF568-PACAP27 probe (Fig. 5c). The settings on record: COS-7, 30 nM AF568-PACAP27, 4 °C, read-out: pIC50, PAC1R competition binding (converted). From the text: An HA signal peptide was inserted in place of the native signal peptide of the receptors and a FLAG epitope was incorporated into the receptor N-terminus immediately after the signal peptide. A His tag was fused to C-terminus of the receptor. 3C protease cleavage sites were inserted between both the FLAG and His tags and the receptor. […] The following PAC1R and VPAC1R mutants were also generated using Quikchange mutagenesis: PAC1R C25A, PAC1R C219A, PAC1R C25A/C219A, VPAC1R C37A and VPAC1R C208A. For all PAC1R constructs, we used the PAC1R null (PAC1n) splice variant. A construct containing N-terminal NLuc immediately after the native signal peptide of PAC1R was also generated in pcDNA3.1.
Therefore, the lysine residue at position 21 was replaced with a cysteine residue (^21C) for the facile conjugation of fluorophore via thiol-maleimide click reaction. The resulting target peptide ^21C-PACAP27 (Mutant fragment) with amidated C-terminus was synthesized by standard Fmoc-solid phase peptide synthesis method[43] and purified by Reversed-phase high-performance liquid chromatography (RP-HPLC). […] of Alexa Fluor™ 568F was purchased from ThermoFisher Scientific (Catalog number: A20003). The thiol-maleimide conjugation reaction was carried out by our published protocol. […] The molecular weight of the probe was confirmed by Matrix-Assisted Laser Desorption/Ionization Time-of-Flight Mass Spectrometry (MALDI-TOF MS).
COS-7 cells were plated in 10 cm dishes at approximately 1 million cells/dish. Cells were transfected 24 h later, using 3 μg of Nluc-PAC1R DNA using the method described above and then seeded at a density of 15,000 cells per well in white-bottom 96-well culturplates 24 h prior to assay. On the day of the assay, cell culture media was replaced with BRET buffer (0.1% ovalbumin, 10 mM HEPES, 1x HBSS, pH 7.45) and incubated at 4 °C for two hours. […] After 1.5 h, furimazine (10 μM final concentration) was added to each well and the plate incubated for a further 30 min in the dark at 4 °C before reading. Filtered light emissions were measured at 460±40 nm (donor channel) and at 610-LP nm (long pass) (acceptor channel) using a PHERAstar plate reader (BMG Labtech). The raw NanoBRET ratio was calculated by dividing the luminescence from the acceptor channel by the donor channel. Data were expressed as % AF568-PACAP27 BRET signal in the absence of competing ligand.
The pharmacological data in figures and tables are reported as mean + standard error of the mean (SEM) with the number of biological replicates indicated in the figure and table legends where “n” represents the number of biological replicates performed. Concentration-response data were analyzed in GraphPad Prism version 9.4.0 using a three-parameter logistic curve to derive pEC50 values for the cyclic AMP accumulation. Competition binding data were analyzed in GraphPad Prism using the one site—Fit log IC50 model to derive pIC50 values. For the cysteine mutagenesis data, comparisons of multiple different groups were performed using one-way analysis of variance (ANOVA), followed by Dunnett’s post-hoc test with the control group being the WT receptor, with significance accepted at p < 0.05. For the chimeric peptide data, comparisons of multiple different groups were performed using one-way ANOVA, followed by Tukey’s post-hoc test, with significance accepted at p < 0.05.
In general terms: In BRET a luciferase serves as donor, and the signal depends on an acceptor being close.

Read-outs that look alike come from different tables or passages of the source. No end group written: not given here.

Consider “HSDGVFTDNYTRLRKQMAVKKYLNSILN-NH2 [Gly4 VIP]”, for which the IC50 is, setting by setting: (replicate n=1) 7550 nM; (replicate n=2) 5500 nM; (replicate n=3) 7110 nM; (replicate n=4) 3400 nM; (replicate n=5) 1140 nM.

In the case of `CC[C@H](C)[C@H](NC(=O)[C@H](C)NC(=O)[C@H](CC(=O)O)NC(=O)[C@H](CO)NC(=O)[C@@H](N)Cc1cnc[nH]1)C(=O)N[C@@H](Cc1ccccc1)C(=O)N[C@H](C(=O)N[C@@H](CC(=O)O)C(=O)N[C@@H](CO)C(=O)N[C@@H](Cc1ccc(O)cc1)C(=O)N[C@@H](CO)C(=O)N[C@@H](CCCNC(=N)N)C(=O)N[C@@H](Cc1ccc(O)cc1)C(=O)N[C@@H](CCCNC(=N)N)C(=O)N[C@@H](CCCCN)C(=O)N[C@@H](CCC(N)=O)C(=O)N[C@@H](CCSC)C(=O)N[C@@H](C)C(=O)N[C@H](C(=O)N[C@@H](CCCCN)C(=O)N[C@@H](CCCCN)C(=O)N[C@@H](Cc1ccc(O)cc1)C(=O)N[C@@H](CC(C)C)C(=O)N[C@@H](C)C(=O)N[C@@H](C)C(=O)N[C@H](C(=O)N[C@@H](CC(C)C)C(N)=O)C(C)C)C(C)C)[C@@H](C)O` [Ala4 PACAP27], the IC50 is 695 nM (replicate n=1); 1970 nM (replicate n=2); 546 nM (replicate n=3); 918 nM (replicate n=4); 2860 nM (replicate n=5).
